Literature values in patent publication US9221758B2, “Methods of synthesizing pharmaceutical salts of a factor Xa inhibitor” (Millennium Pharmaceuticals, Inc., priority 2006, dated 2015).
Where two headings read alike, the source gives them in different places.

Columns and labels:
[1] = statement in words, information in US2007/0112039
Factor Xa = Factor Xa (Homo sapiens, UniProt P00742); settings: statement in words, as discussed in U.S. Pat. No. 6,376,515
Factor Xa, sequence (P00742 235-488 limits assumed): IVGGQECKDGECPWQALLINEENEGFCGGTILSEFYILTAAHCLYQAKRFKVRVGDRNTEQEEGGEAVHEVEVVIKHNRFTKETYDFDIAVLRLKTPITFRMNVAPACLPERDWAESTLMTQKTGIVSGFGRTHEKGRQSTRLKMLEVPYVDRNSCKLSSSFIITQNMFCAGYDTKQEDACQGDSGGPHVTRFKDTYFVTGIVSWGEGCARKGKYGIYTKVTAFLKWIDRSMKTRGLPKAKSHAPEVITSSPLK
Factor Xa, sequence (P00742 41-179 partner limits assumed): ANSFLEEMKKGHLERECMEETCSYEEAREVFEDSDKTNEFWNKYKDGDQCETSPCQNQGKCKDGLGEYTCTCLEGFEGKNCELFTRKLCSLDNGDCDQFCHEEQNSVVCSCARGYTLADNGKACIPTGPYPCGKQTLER

| Compound | thermal and hydrolytic stability [1] | thermal and hydrolytic stability ([1]; listed as maleate salt) | Xa inhibitor potency (Factor Xa) |
| --- | --- | --- | --- |
| COc1ccc(NC(=O)c2ccc(C(=N)N(C)C)cc2)c(C(=O)Nc2ccc(Cl)cn2)c1 | excellent | best thermal and hydrolytic stability observed |  |
| COc1ccc(NC(=O)c2ccc(C(=N)N(C)C)cc2)c(C(=O)Nc2ccc(Cl)cn2)c1 [compound of Formula I] |  |  | potent Xa inhibitor |
